Values quoted from earlier work as cited in PubChem BioAssay AID1259409 (Chemical Carcinogenesis Research Information System (CCRIS), 2018).

Tested on: rodent chemically induced tumor inhibition, incidence and multiplicity
Assay: CCRIS tumor inhibitor studies

CCOC(=O)/C=C(C)/C=C/C=C(C)/C=C/c1c(C)cc(OC)c(C)c1C
tumour outcome (control, treated, inhibition, significance) (Carcinogen: 7,12-DIMETHYLBENZ[A]ANTHRACENE, 57-97-6, Dose [Inhibitor]: 140 NMOL IN 0.2 ML ACETONE 2/WK (D 1 AND D 4 OF EACH WK) 1 HR BEFORE EACH PROMOTER APPLICATION STARTING 14 D AFTER CARCI, Route [Inhibitor]: DERMAL, Species: MOUSE, Strain/Sex: CD-1/FEMALE, Target Tissue: Type of Lesion: SKIN: PAPILLOMA, Dose [Carcinogen]: 0.2 UMOL IN 0.2 ML ACETONE ONCE, Promoter: 12-O-TETRADECANOYLPHORBOL-13-ACETATE, 16561-29-8): 90%, 38%, 58%, not calculated | tumour outcome (control, treated, inhibition, significance) (Carcinogen: TRANS-5-AMINO-3-[2-(5-NITRO-2-FURYL)VINYL]-1,2,4-OXADIAZOLE;SQL8506, 28754-68-9, Carcinogen: TRANS-5-AMINO-3-[2-(5-NITRO-2-FURYL)VINYL]-1,2,4-OXADIAZOLE;SQL8506, 28754-68-9, Dose [Inhibitor]: 75 MG/KG 18 HR BEFORE THE 1ST DOSE OF EACH CARCINOGEN TREATMENT (STUDY DURATION: LIFETIME), Route [Inhibitor]: ORAL, Species: MOUSE, Strain/Sex: CD-1/FEMALE, Target Tissue: Type of Lesion: HEMATOPOIETIC SYSTEM: MYELOID LEUKEMIA, Dose [Carcinogen]: 1 G/KG 2/D FOR 5 D EVERY 4 WK FOR 3 COURSES OF TREATMENT, Promoter: NONE USED): 7/137 (5%), 0/44 (0%), 100%, not calculated | tumour outcome (control, treated, inhibition, significance) (Carcinogen: TRANS-5-AMINO-3-[2-(5-NITRO-2-FURYL)VINYL]-1,2,4-OXADIAZOLE;SQL8506, 28754-68-9, Carcinogen: TRANS-5-AMINO-3-[2-(5-NITRO-2-FURYL)VINYL]-1,2,4-OXADIAZOLE;SQL8506, 28754-68-9, Dose [Inhibitor]: 75 MG/KG 18 HR BEFORE THE 1ST DOSE OF EACH CARCINOGEN TREATMENT (STUDY DURATION: LIFETIME), Route [Inhibitor]: ORAL, Species: MOUSE, Strain/Sex: CD-1/FEMALE, Target Tissue: Type of Lesion: LYMPHOID TISSUE: NONTHYMIC LYMPHOMA, Dose [Carcinogen]: 1 G/KG 2/D FOR 5 D EVERY 4 WK FOR 3 COURSES OF TREATMENT, Promoter: NONE USED): 8/137 (6%), 6/44 (14%), -133%, not calculated | tumour outcome (control, treated, inhibition, significance) (Carcinogen: TRANS-5-AMINO-3-[2-(5-NITRO-2-FURYL)VINYL]-1,2,4-OXADIAZOLE;SQL8506, 28754-68-9, Carcinogen: TRANS-5-AMINO-3-[2-(5-NITRO-2-FURYL)VINYL]-1,2,4-OXADIAZOLE;SQL8506, 28754-68-9, Dose [Inhibitor]: 75 MG/KG 18 HR BEFORE THE 1ST DOSE OF EACH CARCINOGEN TREATMENT (STUDY DURATION: LIFETIME), Route [Inhibitor]: ORAL, Species: MOUSE, Strain/Sex: CD-1/FEMALE, Target Tissue: Type of Lesion: LYMPHOID TISSUE: THYMIC LYMPHOMA, Dose [Carcinogen]: 1 G/KG 2/D FOR 5 D EVERY 4 WK FOR 3 COURSES OF TREATMENT, Promoter: NONE USED): 22/137 (16%), 5/44 (11%), 31%, not calculated | tumour outcome (control, treated, inhibition, significance) (Carcinogen: TRANS-5-AMINO-3-[2-(5-NITRO-2-FURYL)VINYL]-1,2,4-OXADIAZOLE;SQL8506, 28754-68-9, Carcinogen: TRANS-5-AMINO-3-[2-(5-NITRO-2-FURYL)VINYL]-1,2,4-OXADIAZOLE;SQL8506, 28754-68-9, Dose [Inhibitor]: 75 MG/KG 18 HR BEFORE THE 1ST DOSE OF EACH CARCINOGEN TREATMENT (STUDY DURATION: LIFETIME), Route [Inhibitor]: ORAL, Species: MOUSE, Strain/Sex: CD-1/FEMALE, Target Tissue: Type of Lesion: STOMACH: SQUAMOUS CARCINOMA, Dose [Carcinogen]: 1 G/KG 2/D FOR 5 D EVERY 4 WK FOR 3 COURSES OF TREATMENT, Promoter: NONE USED): 60/137 (44%), 26/44 (59%), -34%, not calculated

S=C=Nc1cc2ccccc2c2ccccc12
outcome (Carcinogen: BENZO[A]PYRENE, 50-32-8, Dose [Inhibitor]: 0, 5 UMOL IN ACETONE 4 HR PRIOR TO CARCINOGEN DOSE (STUDY DURATION: 20 WK), Route [Inhibitor]: DERMAL, Species: MOUSE, Strain/Sex: STRAIN-A/FEMALE, Target Tissue: Type of Lesion: SKIN: TUMOR, Dose [Carcinogen]: 0.1 UMOL IN ACETONE ONCE, Promoter: 12-O-TETRADECANOYLPHORBOL-13-ACETATE, 16561-29-8): 85%, 95%, -12%, not significant at 15 wk; 95%, 95%, 0%, not significant at 20 wk

CCCCCCCCCCCCC/C=C/[C@@H](O)[C@H](COP(=O)(O)OCC[N+](C)(C)C)NC=O
tumour outcome (control, treated, inhibition, significance) (Carcinogen: 1,2-DIMETHYLHYDRAZINE DIHYDROCHLORIDE, 306-37-6, Dose [Inhibitor]: 0, 0.025 G/100 G DIET FOR 28 WK BEGINNING 1 WK POST CARCINOGEN TREATMENT (STUDY DURATION: 59 WK), Route [Inhibitor]: ORAL, Species: MOUSE, Strain/Sex: CF-1/FEMALE, Target Tissue: Type of Lesion: COLON: TUMOR, Dose [Carcinogen]: 20 MG/KG BW 1/WK FOR 6 WK, Promoter: NONE USED): 7/15 (47%), 2/10 (20%), 57%, p=0.08 | tumour outcome (control, treated, inhibition, significance) (Carcinogen: 1,2-DIMETHYLHYDRAZINE DIHYDROCHLORIDE, 306-37-6, Dose [Inhibitor]: 0, 0.05 G/100 G DIET FOR 28 WK BEGINNING 1 WK POST CARCINOGEN TREATMENT (STUDY DURATION: 59 WK), Route [Inhibitor]: ORAL, Species: MOUSE, Strain/Sex: CF-1/FEMALE, Target Tissue: Type of Lesion: COLON: TUMOR, Dose [Carcinogen]: 20 MG/KG BW 1/WK FOR 6 WK, Promoter: NONE USED): 7/15 (47%), 3/14 (21%), 55%, p=0.08 | tumour outcome (control, treated, inhibition, significance) (Carcinogen: 1,2-DIMETHYLHYDRAZINE DIHYDROCHLORIDE, 306-37-6, Dose [Inhibitor]: 0, 0.1 G/100 G DIET FOR 28 WK BEGINNING 1 WK POST CARCINOGEN TREATMENT (STUDY DURATION: 59 WK), Route [Inhibitor]: ORAL, Species: MOUSE, Strain/Sex: CF-1/FEMALE, Target Tissue: Type of Lesion: COLON: TUMOR, Dose [Carcinogen]: 20 MG/KG BW 1/WK FOR 6 WK, Promoter: NONE USED): 7/15 (47%), 2/10 (20%), 57%, p=0.08

CC[C@H](C)C(=O)O[C@H]1CCC=C2C=C[C@H](C)[C@H](CC[C@@H]3C[C@@H](O)CC(=O)O3)[C@H]21
tumour outcome (control, treated, inhibition, significance) (Carcinogen: N-ETHYL-N-HYDROXYETHYLNITROSAMINE, 13147-25-6, Dose [Inhibitor]: 0, 0.02% IN DIET BEGINNING 23 WK POST LAST CARCINOGEN DOSE AND CONTINUING TO WK 40 (STUDY DURATION: 40 WK), Route [Inhibitor]: ORAL, Species: RAT, Strain/Sex: WISTAR/MALE, Target Tissue: Type of Lesion: KIDNEY: RENAL CELL TUMORS, Dose [Carcinogen]: 0.1% IN DIET FOR 2 WK, Promoter: NONE USED): 6/17 (35%), 1/10 (10%), 71%, not calculated

Oc1ccc(O)cc1
tumour outcome (control, treated, inhibition, significance) (Carcinogen: BENZO[A]PYRENE, 50-32-8, Dose [Inhibitor]: 5 MG IN 0.1 ML ACETONE 3/WK ADMINISTERED SIMULTANEOUSLY WITH CARCINOGEN FOR DURATION OF STUDY (STUDY DURATION: 368 D), Route [Inhibitor]: DERMAL, Species: MOUSE, Strain/Sex: ICR/FEMALE, Target Tissue: Type of Lesion: SKIN: PAPILLOMA, Dose [Carcinogen]: 5 UG IN 0.1 ML ACETONE 3/WK FOR DURATION OF STUDY, Promoter: NONE USED): 14/50 (28%), 7/50 (14%), 50%, not calculated | tumour outcome (control, treated, inhibition, significance) (Carcinogen: BENZO[A]PYRENE, 50-32-8, Dose [Inhibitor]: 5 MG IN 0.1 ML ACETONE 3/WK ADMINISTERED SIMULTANEOUSLY WITH CARCINOGEN FOR DURATION OF STUDY (STUDY DURATION: 368 D), Route [Inhibitor]: DERMAL, Species: MOUSE, Strain/Sex: ICR/FEMALE, Target Tissue: Type of Lesion: SKIN: SQUAMOUS CARCINOMA, Dose [Carcinogen]: 5 UG IN 0.1 ML ACETONE 3/WK FOR DURATION OF STUDY, Promoter: NONE USED): 10/50 (20%), 3/50 (6%), 70%, not calculated | tumour outcome (control, treated, inhibition, significance) (Carcinogen: N-ETHYL-N-HYDROXYETHYLNITROSAMINE, 13147-25-6, Dose [Inhibitor]: 0, 0.8% IN DIET FOR 36 WK BEGINNING 1 WK POST CARCINOGEN TREATMENT (STUDY DURATION: 40 WK), Route [Inhibitor]: ORAL, Species: RAT, Strain/Sex: WISTAR/MALE, Target Tissue: Type of Lesion: LIVER: HEPATOCELLULAR ADENOMA, Dose [Carcinogen]: 0.1% IN DRINKING WATER FOR 3 WK, Promoter: NONE USED): 10/17 (59%), 11/18 (61%), -3%, not significant | tumour outcome (control, treated, inhibition, significance) (Carcinogen: N-ETHYL-N-HYDROXYETHYLNITROSAMINE, 13147-25-6, Dose [Inhibitor]: 0, 0.8% IN DIET FOR 36 WK BEGINNING 1 WK POST CARCINOGEN TREATMENT (STUDY DURATION: 40 WK), Route [Inhibitor]: ORAL, Species: RAT, Strain/Sex: WISTAR/MALE, Target Tissue: Type of Lesion: LIVER: HEPATOCELLULAR CARCINOMA, Dose [Carcinogen]: 0.1% IN DRINKING WATER FOR 3 WK, Promoter: NONE USED): 7/17 (41%), 3/18 (17%), 56%, not significant
